Converted amounts (≈) assume the structure as drawn.
Assays:
[1] = tested on: Escherichia coli IFO 12734; assay: Antibacterial activity (MIC), agar plate, E. coli; assay type: cell-based; conditions: E. coli IFO 12734, Mueller-Hinton agar, 37° C., 18 to 24 hours; unit assumed
Experimental: (§1) Antibacterial activity of the present compounds was examined as follows.
(§2) Antibacterial activity of each of the present compounds was examined against the following two bacteria according to the standard method of Japan Society of Chemotherapy:
Escherichia coli IFO 12734 and
(§3) Each bacterial strain was inoculated into the Mueller-Hinton's culture medium and cultured at 37° C. for 18 to 48 hours. The culture medium was diluted so as to contain 1×10^6 cells of the bacteria per one ml, and the obtained medium was used as the bacterial specimen.
(§4) Agar plates were prepared by adding one part by weight of each solution of the present compounds having a predetermined concentration to nine parts by weight of Mueller-Hinton's culture medium.
(§5) A loopful amount of the bacterial specimen prepared above was smeared to make a streak of about 2 cm on each agar plate and cultured at 37° C. for 18 to 24 hours. The minimum concentration for completely inhibiting proliferation of the bacteria (referred as MIC) was determined.

Escherichia coli = assay: Effect on intestinal bacterial colonies, E. coli count in feces; assay type: in vivo; conditions: female ICR mice, oral 500 mg/kg/day for two days, first day after administration; before administration 6.4
Experimental: (§6) Effect of the present compounds on the intestinal bacterial colonies was examined.
(§7) Each of the present compounds was orally administered to mice (one group consisting of five female ICR mice of 6-week-old) for two consecutive days at a dose of 500 mg/kg/day.
(§8) Before and on the first day after the administration, feces of each mouse was collected and diluted with an anerobic diluent (phosphoric buffer solution) of 100 times volume and ground. 0.1 ml of the diluted and ground feces was smeared on each culture medium shown in Table 1 and cultured aerobically or anaerobically (according to the anaerobic glove box method) under each condition shown in Table 1.
DHL agar aerobic, 37° C., one day

[2] = tested on: Staphylococcus aureus IAM 1011; assay: Antibacterial activity (MIC), agar plate, Staph. aureus; assay type: cell-based; conditions: Staph. aureus IAM 1011, Mueller-Hinton agar, 37° C., 18 to 24 hours; unit assumed
Experimental: as §1, §2
Staphylococcus aureus IAM 1011
as §3, §4, §5

Pseudomonas aeruginosa = assay: Effect on intestinal bacterial colonies, Ps. aeruginosa count in feces; assay type: in vivo; conditions: female ICR mice, oral 500 mg/kg/day for two days, first day after administration; before administration <3.0
Experimental: as §6, §7, §8
NAC agar aerobic, 37° C., one day

[3] = tested on: Lactobacillus acidophilus; assay: Effect on intestinal bacterial colonies, L. acidophilus count in feces; assay type: in vivo; conditions: female ICR mice, oral 500 mg/kg/day for two days, first day after administration; before administration 9.0
Experimental: as §6, §7, §8
Lactobacillus acidophilus
LBS agar anaerobic, 37° C., five

[4] = tested on: Staphylococcus aureus IAM 1011; assay: Activation by rat liver homogenate (S-9 mix), penicillin cup proliferation-inhibiting circle; assay type: cell-based; conditions: compound solution 100 μg/ml, ratio of circle diameter to conventional penicillin antibiotic
Experimental: As an enzyme for activating metabolism, a rat liver homogenate (S-9, manufactured by Oriental Yeast Company, Japan) was used in the following composition per one ml (hereinafter referred to as S-9 mix).
0.1 ml of each solution of the present compounds at a concentration of 100 μg/ml was mixed with 0.9 ml of S-9 mix or 0.9 ml of 0.1M phosphoric buffer solution (as a control) and the obtained mixture was incubated at 37° C. for 20 min with shaking.
Staphylococcus aureus IAM 1011 was inoculated into a Mueller-Hinton's culture medium and cultured at 37° C. for 18 hours. The culture medium was adjusted to a cell concentration of 1×10^8 per one ml and mixed with 50 times by volume of Mueller-Hinton's agar culture medium to obtain an agar plate.
A penicillin cup of 8 mm in diameter was placed on the agar plate prepared above, and into the cup 0.1 ml of the mixture was introduced and allowed to stand at 4° C. for 2 hours and then cultured at 37° C. for 18 hours to measure the diameter of a circle in which the proliferation of bacteria was inhibited (proliferation-inhibiting circle). In Table 4, the proliferation-inhibitingindex is shown with the ratio (%) of the diameter of the proliferation-inhibiting circle obtained by using each of the present compounds to that obtained by using the comparative compound (conventionalpenicillin antibiotic).

Bacteroides = assay: Effect on intestinal bacterial colonies, Bacteroides count in feces; assay type: in vivo; conditions: female ICR mice, oral 500 mg/kg/day for two days, first day after administration; before administration 8.3
Experimental: as §6, §7, §8
Bacteroides NBGT agar anaerobic, 37° C., five

Streptococcus spp. = assay: Effect on intestinal bacterial colonies, Streptococcus count in feces; assay type: in vivo; conditions: female ICR mice, oral 500 mg/kg/day for two days, first day after administration; before administration 6.8
Experimental: as §6, §7, §8
TATAC agar aerobic, 37° C., one day

Lactobacillus bifidus = assay: Effect on intestinal bacterial colonies, L. bifidus count in feces; assay type: in vivo; conditions: female ICR mice, oral 500 mg/kg/day for two days, first day after administration; before administration 8.4
Experimental: as §6, §7, §8
BS agar anaerobic, 37° C., five

`COCOC(=O)[C@@H]1N2C(=O)[C@@H](NC(=O)COc3ccccc3)[C@H]2SC1(C)C` [Example 9] was tested, and the MIC, E. coli [1] was no less than 25 µg/mL, the “Logarithmic value of the number of bacterial cells per one gram of feces, E. coli” value (Escherichia coli) was 6.5 logarithmic value; cells per o and the MIC, Staph. aureus [2] was 12.5 µg/mL (≈ 31.7 µM). The “Logarithmic value of the number of bacterial cells per one gram of feces, Ps. aeruginosa” value (Pseudomonas aeruginosa) was 3.2 logarithmic value; cells per o, the “Logarithmic value of the number of bacterial cells per one gram of feces, L. acidophilus” value [3] was 9.5 logarithmic value; cells per o and the “Proliferation-inhibiting index (%), after adding S-9 mix” value ([4]; incubated with S-9 mix 37° C., 20 min) was “++ (33-66)”. For the same compound, the “Proliferation-inhibiting index (%), before adding S-9 mix” value ([4]; phosphoric buffer control without S-9) was “+ (1-33)”, the “Logarithmic value of the number of bacterial cells per one gram of feces, Bacteroides” value (Bacteroides) was 8.1 logarithmic value; cells per o and the “Logarithmic value of the number of bacterial cells per one gram of feces, Strept. spp.” value (Streptococcus spp.) was 7.0 logarithmic value; cells per o. For the same compound, the “Logarithmic value of the number of bacterial cells per one gram of feces, L. bifidus” value (Lactobacillus bifidus) was 8.5 logarithmic value; cells per o.

— US4540689A, “Penicillin derivative” (Kureha Kagaku Kogyo Kabushiki Kaisha, priority 1981, dated 1985)
